Source: patent publication US20250302815A1, “PROTEIN TYROSINE PHOSPHATASE TARGETING LIGANDS” (CALICO LIFE SCIENCES LLC, priority 2021, published 2025)

Experiments:
PTPN2 (B16F10.4 cells) = target: T1, PTPN2 (B16F10.4 cells) (Mus musculus, UniProt Q06180); test: HiBiT Degradation B16F10.4 PTPN2; assay type: cell-based; conditions: 24.0 hours
T1 construct: HiBiT; host or cells: B16F10.4
T1 sequence (Q06180 1-406): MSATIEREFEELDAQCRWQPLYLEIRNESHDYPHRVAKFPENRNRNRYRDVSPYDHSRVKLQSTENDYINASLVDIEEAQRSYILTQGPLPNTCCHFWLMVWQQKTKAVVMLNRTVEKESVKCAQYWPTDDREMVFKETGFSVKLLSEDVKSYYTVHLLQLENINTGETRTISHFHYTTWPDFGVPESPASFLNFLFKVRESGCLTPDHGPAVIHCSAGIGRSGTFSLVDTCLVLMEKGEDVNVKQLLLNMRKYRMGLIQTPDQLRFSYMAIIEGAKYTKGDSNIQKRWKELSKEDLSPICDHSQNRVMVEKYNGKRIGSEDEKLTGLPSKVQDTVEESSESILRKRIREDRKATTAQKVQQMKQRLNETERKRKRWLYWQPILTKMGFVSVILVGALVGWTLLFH

[1] = target: T2, PTPN2 (HiBIT-PTPN2 in 293T.109 cells) (Homo sapiens, UniProt P17706); test: HiBiT Degradation 293T.109 PTPN2 (Nano-Glo HiBiT Lytic Assay); assay type: cell-based; conditions: 24.0 hours
T2 construct: expressed in transfected cells; host or cells: 293T.109 (293T WT from ATCC)
T2 sequence (P17706 1-415): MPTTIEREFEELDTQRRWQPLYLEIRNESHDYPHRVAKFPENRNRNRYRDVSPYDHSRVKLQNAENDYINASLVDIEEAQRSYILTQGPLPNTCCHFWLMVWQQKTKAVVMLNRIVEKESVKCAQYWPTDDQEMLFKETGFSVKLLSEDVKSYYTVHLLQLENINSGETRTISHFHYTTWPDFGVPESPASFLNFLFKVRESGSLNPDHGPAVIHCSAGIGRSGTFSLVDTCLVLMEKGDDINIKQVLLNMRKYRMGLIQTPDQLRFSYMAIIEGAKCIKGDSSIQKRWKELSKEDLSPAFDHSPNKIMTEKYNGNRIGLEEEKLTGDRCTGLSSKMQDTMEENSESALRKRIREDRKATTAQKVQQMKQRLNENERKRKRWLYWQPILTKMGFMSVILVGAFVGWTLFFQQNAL
Summary of the method: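 Degradation read-out: lytic HiBiT luminescence after 24 h treatment (37 °C, 5% CO2) of 5000 293T cells per well expressing HiBiT-fused PTPN2 from an N-terminal tag. Dosing was 11 points, half-log steps down from 10 μM, in duplicate; vehicle-treated and no-reagent wells served as controls.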

| Structure (SMILES) | DC50 (PTPN2 (B16F10.4 cells)) | DC50 [1] |
| --- | --- | --- |
| CC1(C)C[C@@H](Nc2cccc(-c3sc(C(=O)O)c(OCC(=O)O)c3Cl)c2)CCN1S(=O)(=O)Cc1cccc(NC(=O)C2CCN(C(=O)COc3cccc4c3C(=O)N(C3CCC(=O)NC3=O)C4=O)CC2)c1 (stereo partly drawn) [Example 58, 3-(carboxymethoxy)-4-chloro-5-[3-[[(4S)-1-[3-[[1-[2-[[2-(2,6-dioxo-3-piperidyl)-1,3-dioxo-isoindolin-4-yl]oxyacetyl]piperidine-4-carbonyl]amino]phenyl]methylsulfonyl]-2,2-dimethyl-4-piperidyl]amino]phenyl]thiophene-2-carboxylic acid] | ≥ 1000 nM | 200 to 1000 nM |
| O=C(O)COc1c(C(=O)O)sc(-c2cccc(NC3CCN(S(=O)(=O)Cc4cccc(NC(=O)N5CCC(Nc6cccc7c6CN(C6CCC(=O)NC6=O)C7=O)CC5)c4)CC3)c2)c1Cl (centres unmarked) [Example 59, 3-(carboxymethoxy)-4-chloro-5-[3-[[1-[[3-[[4-[[2-(2,6-dioxo-3-piperidyl)-1-oxo-isoindolin-4-yl]amino]piperidine-1-carbonyl]amino]phenyl]methylsulfonyl]-4-piperidyl]amino]phenyl]thiophene-2-carboxylic acid] | 200 to 1000 nM | 200 to 1000 nM |
| Cn1c(=O)n(C2CCC(=O)NC2=O)c2ccc(C3CCN(C(=O)Nc4cccc(CS(=O)(=O)N5CC[C@H](Nc6cccc(-c7sc(C(=O)O)c(OCC(=O)O)c7Cl)c6)CC5(C)C)c4)CC3)cc21 (stereo partly drawn) [Example 60, 3-(carboxymethoxy)-4-chloro-5-(3-(((4S)-1-((3-(4-(1-(2,6-dioxopiperidin-3-yl)-3-methyl-2-oxo-2,3-dihydro-1H-benzo[d]imidazol-5-yl)piperidine-1-carboxamido)benzyl)sulfonyl)-2,2-dimethylpiperidin-4-yl)amino)phenyl)thiophene-2-carboxylic acid] | < 50 nM | 50 to 200 nM |
| CC1(C)C[C@@H](Nc2cccc(-c3sc(C(=O)O)c(OCC(=O)O)c3Cl)c2)CCN1S(=O)(=O)Cc1cccc(NC(=O)C2CCN(C(=O)CCc3cccc4c3CN(C3CCC(=O)NC3=O)C4=O)CC2)c1 (stereo partly drawn) [Example 61, 3-(carboxymethoxy)-4-chloro-5-(3-(((4S)-1-((3-(1-(3-(2-(2,6-dioxopiperidin-3-yl)-1-oxoisoindolin-4-yl)propanoyl)piperidine-4-carboxamido)benzyl)sulfonyl)-2,2-dimethylpiperidin-4-yl)amino)phenyl)thiophene-2-carboxylic acid] | 200 to 1000 nM | 200 to 1000 nM |
| CC1(C)C[C@@H](Nc2cccc(-c3sc(C(=O)O)c(OCC(=O)O)c3Cl)c2)CCN1S(=O)(=O)Cc1cccc(NC(=O)N2CCN(C(=O)CNc3cccc4c3CN(C3CCC(=O)NC3=O)C4=O)CC2)c1 (stereo partly drawn) [Example 62, 3-(carboxymethoxy)-4-chloro-5-(3-(((4S)-1-((3-(4-((2-(2,6-dioxopiperidin-3-yl)-1-oxoisoindolin-4-yl)glycyl)piperazine-1-carboxamido)benzyl)sulfonyl)-2,2-dimethylpiperidin-4-yl)amino)phenyl)thiophene-2-carboxylic acid] | 200 to 1000 nM | 50 to 200 nM |
| CC1(C)C[C@@H](Nc2cccc(-c3sc(C(=O)O)c(OCC(=O)O)c3Cl)c2)CCN1S(=O)(=O)Cc1cccc(NC(=O)C2CCN(C(=O)COc3cccc4c3CN(C3CCC(=O)NC3=O)C4=O)CC2)c1 (stereo partly drawn) [Example 63, 3-(carboxymethoxy)-4-chloro-5-(3-(((4S)-1-((3-(1-(2-((2-(2,6-dioxopiperidin-3-yl)-1-oxoisoindolin-4-yl)oxy)acetyl)piperidine-4-carboxamido)benzyl)sulfonyl)-2,2-dimethylpiperidin-4-yl)amino)phenyl)thiophene-2-carboxylic acid] | 200 to 1000 nM | 50 to 200 nM |
| CC1(C)C[C@@H](Nc2cccc(-c3sc(C(=O)O)c(OCC(=O)O)c3Cl)c2)CCN1S(=O)(=O)Cc1cccc(NC(=O)N2CCN(C(=O)CCc3cccc4c3CN(C3CCC(=O)NC3=O)C4=O)CC2)c1 (some centres unmarked) [Example 64] | 200 to 1000 nM | 200 to 1000 nM |
| O=C(O)COc1c(C(=O)O)sc(-c2cccc(NC3CCN(S(=O)(=O)Cc4cccc(NC(=O)N5CCC(Oc6cccc7c6CN(C6CCC(=O)NC6=O)C7=O)CC5)c4)CC3)c2)c1Cl (centres unmarked) [Example 65] | 200 to 1000 nM | 200 to 1000 nM |
| CN(C(=O)C1CCN(C(=O)CNc2cccc3c2CN(C2CCC(=O)NC2=O)C3=O)CC1)c1cccc(CS(=O)(=O)N2CC[C@@H](Nc3cccc(-c4sc(C(=O)O)c(OCC(=O)O)c4Cl)c3)CC2(C)C)c1 (stereo partly drawn) [Example 66, 3-(carboxymethoxy)-4-chloro-5-(3-(((4R)-1-((3-(1-((2-(2,6-dioxopiperidin-3-yl)-1-oxoisoindolin-4-yl)glycyl)-N-methylpiperidine-4-carboxamido)benzyl)sulfonyl)-2,2-dimethylpiperidin-4-yl)amino)phenyl)thiophene-2-carboxylic acid] | ≥ 1000 nM | 200 to 1000 nM |
| CN(C(=O)C1CCN(C(=O)CNc2cccc3c2CN(C2CCC(=O)NC2=O)C3=O)CC1)c1cccc(CS(=O)(=O)N2CC[C@H](Nc3cccc(-c4sc(C(=O)O)c(OCC(=O)O)c4Cl)c3)CC2(C)C)c1 (stereo partly drawn) [Example 67, 3-(carboxymethoxy)-4-chloro-5-(3-(((4S)-1-((3-(1-((2-(2,6-dioxopiperidin-3-yl)-1-oxoisoindolin-4-yl)glycyl)-N-methylpiperidine-4-carboxamido)benzyl)sulfonyl)-2,2-dimethylpiperidin-4-yl)amino)phenyl)thiophene-2-carboxylic acid] | ≥ 1000 nM | 200 to 1000 nM |
| CC1(C)C[C@@H](Nc2cccc(-c3sc(C(=O)O)c(OCC(=O)O)c3Cl)c2)CCN1S(=O)(=O)Cc1cccc(NC(=O)N2CCC(c3ccc4c(c3)oc(=O)n4C3CCC(=O)NC3=O)CC2)c1 (stereo partly drawn) [Example 68, 3-(carboxymethoxy)-4-chloro-5-[3-[[(4S)-1-[[3-[[4-[3-(2,6-dioxo-3-piperidyl)-2-oxo-1,3-benzoxazol-6-yl]piperidine-1-carbonyl]amino]phenyl]methylsulfonyl]-2,2-dimethyl-4-piperidyl]amino]phenyl]thiophene-2-carboxylic acid] | 50 to 200 nM | 50 to 200 nM |
| Cn1c(=O)n(C2CCC(=O)NC2=O)c2ccc(C3CCN(CC(=O)Nc4cccc(CS(=O)(=O)N5CCC(Nc6cccc(-c7sc(C(=O)O)c(OCC(=O)O)c7Cl)c6)CC5(C)C)c4)CC3)cc21 [Example 69, 3-(carboxymethoxy)-4-chloro-5-[3-[[(4S)-1-[[3-[2-[4-[1-(2,6-dioxo-3-piperidyl)-3-methyl-2-oxo-benzimidazol-S-yl]-1-piperidyl]acetyl]amino]phenyl]methylsulfonyl]-2,2-dimethyl-4-piperidyl]amino]phenyl]thiophene-2-carboxylic acid] | 50 to 200 nM | < 50 nM |
| CC1(C)C[C@@H](Nc2cccc(-c3sc(C(=O)O)c(OCC(=O)O)c3Cl)c2)CCN1S(=O)(=O)Cc1cccc(NC(=O)CN2CCC(c3ccc4c(c3)oc(=O)n4C3CCC(=O)NC3=O)CC2)c1 (stereo partly drawn) [Example 70, 3-(Carboxymethoxy)-4-chloro-5-[3-[[(4S)-1-[[3-[[2-[4-[3-(2,6-dioxo-3-piperidyl)-2-oxo-1,3-benzoxazol-6-yl]-1-piperidyl]acetyl]amino]phenyl]methylsulfonyl]-2,2-dimethyl-4-piperidyl]amino]phenyl]thiophene-2-carboxylic acid] | 200 to 1000 nM | 50 to 200 nM |
| CN(C(=O)CCN1CCC(Nc2cccc3c2CN(C2CCC(=O)NC2=O)C3=O)CC1)c1cccc(CS(=O)(=O)N2CCC(Nc3cccc(-c4sc(C(=O)O)c(OCC(=O)O)c4Cl)c3)CC2(C)C)c1 (centres unmarked) [Example 71, 3-(carboxymethoxy)-4-chloro-5-(3-((1-((3-(3-(4-((2-(2,6-dioxopiperidin-3-yl)-1-oxoisoindolin-4-yl)amino)piperidin-1-yl)-N-methylpropanamido)benzyl)sulfonyl)-2,2-dimethylpiperidin-4-yl)amino)phenyl)thiophene-2-carboxylic acid] | ≥ 1000 nM | 50 to 200 nM |
| CC1(C)C[C@@H](Nc2cccc(-c3sc(C(=O)O)c(OCC(=O)O)c3Cl)c2)CCN1S(=O)(=O)Cc1cccc(NC(=O)N2CCC(Oc3cccc4c3CN(C3CCC(=O)NC3=O)C4=O)CC2)c1 (some centres unmarked) [Example 72] | 50 to 200 nM | 50 to 200 nM |
| O=C(O)COc1c(C(=O)O)sc(-c2cccc(NC3CCN(S(=O)(=O)Cc4cccc(NC(=O)C5CCN(C(=O)CNc6cccc7c6CN(C6CCC(=O)NC6=O)C7=O)CC5)c4F)CC3)c2)c1Cl (centres unmarked) [Example 73, 3-(carboxymethoxy)-4-chloro-5-(3-((1-((3-(1-((2-(2,6-dioxopiperidin-3-yl)-1-oxoisoindolin-4-yl)glycyl)piperidine-4-carboxamido)-2-fluorobenzyl)sulfonyl)piperidin-4-yl)amino)phenyl)thiophene-2-carboxylic acid] | ≥ 1000 nM | 50 to 200 nM |
